Measured values: a compilation of properties of binary mixtures (doi:10.1016/j.molliq.2021.118200)

Test: xn = mol fraction of the nth substance listed
Details: 100 kPa

Structure (SMILES): CC(=O)[O-].COCCn1cc[n+](C)c1 + O
- electrical conductivity (288.15 K, x1 = 0.8396): 0.351 S/m
- viscosity (288.15 K, x1 = 0.8396): 74.3 mPa·s
- electrical conductivity (288.15 K, x1 = 0.8663): 0.313 S/m
- viscosity (288.15 K, x1 = 0.8663): 76.6 mPa·s
- electrical conductivity (288.15 K, x1 = 0.8945): 0.278 S/m
- viscosity (288.15 K, x1 = 0.8945): 78.6 mPa·s
- electrical conductivity (288.15 K, x1 = 0.9225): 0.244 S/m
- viscosity (288.15 K, x1 = 0.9225): 80.4 mPa·s
- electrical conductivity (288.15 K, x1 = 0.9511): 0.215 S/m
- viscosity (288.15 K, x1 = 0.9511): 82.1 mPa·s
- electrical conductivity (288.15 K, x1 = 1): 0.162 S/m
- viscosity (288.15 K, x1 = 1): 85.1 mPa·s
- electrical conductivity (293.15 K, x1 = 0.8663): 0.373 S/m
- viscosity (293.15 K, x1 = 0.8663): 56.95 mPa·s
- electrical conductivity (293.15 K, x1 = 0.9225): 0.3 S/m
- viscosity (293.15 K, x1 = 0.9225): 60.54 mPa·s
- electrical conductivity (293.15 K, x1 = 0.9511): 0.268 S/m
- viscosity (293.15 K, x1 = 0.9511): 62.23 mPa·s
- electrical conductivity (293.15 K, x1 = 1): 0.215 S/m
- viscosity (293.15 K, x1 = 1): 65.09 mPa·s
- electrical conductivity (298.15 K, x1 = 0.8396): 0.476 S/m
- viscosity (298.15 K, x1 = 0.8396): 41.38 mPa·s
- electrical conductivity (298.15 K, x1 = 0.8663): 0.437 S/m
- viscosity (298.15 K, x1 = 0.8663): 43.06 mPa·s
- electrical conductivity (298.15 K, x1 = 0.8945): 0.405 S/m
- viscosity (298.15 K, x1 = 0.8945): 44.51 mPa·s
- electrical conductivity (298.15 K, x1 = 0.9225): 0.371 S/m
- viscosity (298.15 K, x1 = 0.9225): 45.75 mPa·s
- electrical conductivity (298.15 K, x1 = 0.9511): 0.342 S/m
- viscosity (298.15 K, x1 = 0.9511): 46.93 mPa·s
- electrical conductivity (298.15 K, x1 = 1): 0.29 S/m
- viscosity (298.15 K, x1 = 1): 49.12 mPa·s
- electrical conductivity (303.15 K, x1 = 0.8396): 0.564 S/m
- viscosity (303.15 K, x1 = 0.8396): 28.47 mPa·s
- electrical conductivity (303.15 K, x1 = 0.8663): 0.529 S/m
- electrical conductivity (303.15 K, x1 = 0.9225): 0.466 S/m
- viscosity (303.15 K, x1 = 0.9225): 34.3 mPa·s
- electrical conductivity (303.15 K, x1 = 0.9511): 0.439 S/m
- viscosity (303.15 K, x1 = 0.9511): 35.83 mPa·s
- electrical conductivity (303.15 K, x1 = 1): 0.39 S/m
- viscosity (303.15 K, x1 = 1): 38.77 mPa·s
- electrical conductivity (308.15 K, x1 = 0.8396): 0.673 S/m
- viscosity (308.15 K, x1 = 0.8396): 24.95 mPa·s
- electrical conductivity (308.15 K, x1 = 0.8945): 0.604 S/m
- viscosity (308.15 K, x1 = 0.8945): 26.78 mPa·s
- electrical conductivity (308.15 K, x1 = 0.9225): 0.572 S/m
- viscosity (308.15 K, x1 = 0.9225): 27.6 mPa·s
- electrical conductivity (308.15 K, x1 = 0.9511): 0.541 S/m
- viscosity (308.15 K, x1 = 0.9511): 28.32 mPa·s
- electrical conductivity (308.15 K, x1 = 1): 0.491 S/m
- viscosity (308.15 K, x1 = 1): 29.64 mPa·s
- electrical conductivity (313.15 K, x1 = 0.8396): 0.807 S/m
- viscosity (313.15 K, x1 = 0.8396): 20.97 mPa·s
- electrical conductivity (313.15 K, x1 = 0.8663): 0.773 S/m
- viscosity (313.15 K, x1 = 0.8663): 21.65 mPa·s
- electrical conductivity (313.15 K, x1 = 0.8945): 0.733 S/m
- viscosity (313.15 K, x1 = 0.8945): 22.3 mPa·s
- electrical conductivity (313.15 K, x1 = 0.9225): 0.698 S/m
- viscosity (313.15 K, x1 = 0.9225): 22.87 mPa·s
- electrical conductivity (313.15 K, x1 = 0.9511): 0.666 S/m
- viscosity (313.15 K, x1 = 0.9511): 23.4 mPa·s
- electrical conductivity (313.15 K, x1 = 1): 0.611 S/m
- viscosity (313.15 K, x1 = 1): 24.35 mPa·s
- electrical conductivity (318.15 K, x1 = 0.8396): 0.963 S/m
- viscosity (318.15 K, x1 = 0.8396): 17.28 mPa·s
- electrical conductivity (318.15 K, x1 = 0.8945): 0.886 S/m
- viscosity (318.15 K, x1 = 0.8945): 18.26 mPa·s
- electrical conductivity (318.15 K, x1 = 0.9225): 0.851 S/m
- viscosity (318.15 K, x1 = 0.9225): 18.74 mPa·s
- electrical conductivity (318.15 K, x1 = 0.9511): 0.814 S/m
- viscosity (318.15 K, x1 = 0.9511): 19.18 mPa·s
- electrical conductivity (318.15 K, x1 = 1): 0.759 S/m
- viscosity (318.15 K, x1 = 1): 19.91 mPa·s

Structure (SMILES): CCC(=O)[O-].COCCn1cc[n+](C)c1 + O
- electrical conductivity (288.15 K, x1 = 0.8582): 0.278 S/m
- viscosity (288.15 K, x1 = 0.8582): 88.4 mPa·s
- electrical conductivity (288.15 K, x1 = 0.9175): 0.201 S/m
- viscosity (288.15 K, x1 = 0.9175): 104.5 mPa·s
- electrical conductivity (288.15 K, x1 = 0.9479): 0.169 S/m
- viscosity (288.15 K, x1 = 0.9479): 113.9 mPa·s
- electrical conductivity (293.15 K, x1 = 0.8302): 0.362 S/m
- viscosity (293.15 K, x1 = 0.8302): 61.46 mPa·s
- electrical conductivity (293.15 K, x1 = 0.8582): 0.324 S/m
- viscosity (293.15 K, x1 = 0.8582): 66.3 mPa·s
- electrical conductivity (293.15 K, x1 = 0.8879): 0.289 S/m
- viscosity (293.15 K, x1 = 0.8879): 72.1 mPa·s
- electrical conductivity (293.15 K, x1 = 0.9175): 0.254 S/m
- viscosity (293.15 K, x1 = 0.9175): 78.1 mPa·s
- electrical conductivity (293.15 K, x1 = 1): 0.166 S/m
- viscosity (293.15 K, x1 = 1): 93.3 mPa·s
- electrical conductivity (298.15 K, x1 = 0.8582): 0.387 S/m
- viscosity (298.15 K, x1 = 0.8582): 50.5 mPa·s
- electrical conductivity (298.15 K, x1 = 0.8879): 0.352 S/m
- viscosity (298.15 K, x1 = 0.8879): 54.67 mPa·s
- electrical conductivity (298.15 K, x1 = 0.9175): 0.315 S/m
- viscosity (298.15 K, x1 = 0.9175): 59.23 mPa·s
- electrical conductivity (303.15 K, x1 = 0.8302): 0.523 S/m
- viscosity (303.15 K, x1 = 0.8302): 37.29 mPa·s
- electrical conductivity (303.15 K, x1 = 0.8879): 0.448 S/m
- viscosity (303.15 K, x1 = 0.8879): 42.96 mPa·s
- electrical conductivity (303.15 K, x1 = 0.9175): 0.411 S/m
- viscosity (303.15 K, x1 = 0.9175): 46.22 mPa·s
- electrical conductivity (303.15 K, x1 = 0.9479): 0.378 S/m
- viscosity (303.15 K, x1 = 0.9479): 49.63 mPa·s
- electrical conductivity (303.15 K, x1 = 1): 0.32 S/m
- viscosity (303.15 K, x1 = 1): 54.2 mPa·s
- electrical conductivity (308.15 K, x1 = 0.8302): 0.625 S/m
- viscosity (308.15 K, x1 = 0.8302): 29.69 mPa·s
- electrical conductivity (308.15 K, x1 = 0.8582): 0.584 S/m
- viscosity (308.15 K, x1 = 0.8582): 31.71 mPa·s
- electrical conductivity (308.15 K, x1 = 0.8879): 0.548 S/m
- viscosity (308.15 K, x1 = 0.8879): 33.88 mPa·s
- electrical conductivity (308.15 K, x1 = 0.9175): 0.511 S/m
- viscosity (308.15 K, x1 = 0.9175): 36.42 mPa·s
- electrical conductivity (308.15 K, x1 = 0.9479): 0.479 S/m
- viscosity (308.15 K, x1 = 0.9479): 39.09 mPa·s
- electrical conductivity (308.15 K, x1 = 1): 0.42 S/m
- viscosity (308.15 K, x1 = 1): 42.49 mPa·s
- electrical conductivity (313.15 K, x1 = 0.8302): 0.724 S/m
- viscosity (313.15 K, x1 = 0.8302): 24.42 mPa·s
- electrical conductivity (313.15 K, x1 = 0.8582): 0.687 S/m
- viscosity (313.15 K, x1 = 0.8582): 25.86 mPa·s
- electrical conductivity (313.15 K, x1 = 0.8879): 0.653 S/m
- viscosity (313.15 K, x1 = 0.8879): 27.57 mPa·s
- electrical conductivity (313.15 K, x1 = 0.9175): 0.616 S/m
- viscosity (313.15 K, x1 = 0.9175): 29.53 mPa·s
- electrical conductivity (313.15 K, x1 = 1): 0.532 S/m
- viscosity (313.15 K, x1 = 1): 33.96 mPa·s
- electrical conductivity (318.15 K, x1 = 0.8302): 0.881 S/m
- viscosity (318.15 K, x1 = 0.8302): 18.8 mPa·s
- electrical conductivity (318.15 K, x1 = 0.8879): 0.799 S/m
- viscosity (318.15 K, x1 = 0.8879): 21.28 mPa·s
- electrical conductivity (318.15 K, x1 = 0.9175): 0.759 S/m
- viscosity (318.15 K, x1 = 0.9175): 22.93 mPa·s
- electrical conductivity (318.15 K, x1 = 1): 0.663 S/m
- viscosity (318.15 K, x1 = 1): 26.51 mPa·s
